Laboratory results published in ChEMBL document CHEMBL1201862, “PubChem BioAssay data set” (2004).
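Exposure lasted 48 hours, with cells grown in 96-well plates and compounds tested at five concentrations. At the GI50, growth is halved.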 Activity calls are given as the source filed them. Rule as the data show it: active = GI50 up to about 1.1 µM and inactive = higher.

Key:
Test in all cases: inhibition of tumour cell growth, NCI panel, 48 h
[1] = system: Hs-578T
[2] = system: UO-31
[3] = system: OVCAR-8
[4] = system: ACHN
[5] = system: UACC-257
[6] = system: NCI/ADR-RES
[7] = system: RPMI-8226
[8] = system: OVCAR-5
[9] = system: NCI-H226
[10] = system: SK-OV-3
[11] = system: MOLT-4
[12] = system: SK-MEL-2
[13] = system: HCC 2998
[14] = system: BT-549
[15] = system: MCF7
[16] = system: 786-0
[17] = system: HCT-15
[18] = system: SK-MEL-5
[19] = system: TK-10
[20] = system: NCI-H522

SMILES | GI50 [1] | GI50 [2] | GI50 [3] | GI50 [4] | GI50 [5] | GI50 [6] | GI50 [7] | GI50 [8] | GI50 [9] | GI50 [10] | GI50 [11] | GI50 [12] | GI50 [13] | GI50 [14] | GI50 [15] | GI50 [16] | GI50 [17] | GI50 [18] | GI50 [19] | GI50 [20]
CN(Cc1cnc2nc(N)nc(N)c2n1)c1ccc(C(=O)NC(CCC(=O)O)C(=O)O)c2ccccc12 (stereo not drawn) | 0.0982 µM (active) | 0.00638 µM (active) | 0.00378 µM (active) | 0.00441 µM (active) | 0.0425 µM (active) | 0.00395 µM (active) | 0.00764 µM (active) | 0.0185 µM (active) | < 0.1 µM (active) | 0.0456 µM (active) | 0.00545 µM (active) | < 0.1 µM (active) | 0.00145 µM (active) | 0.092 µM (active) | 0.00163 µM (active) | 0.00303 µM (active) | 0.00186 µM | 0.0107 µM (active) | 0.0458 µM (active) | 
O=C(O)c1ccc(Nc2cnc3ccc(C(F)(F)F)cc3n2)cc1 | 7.08 µM (inactive) | 13.7 µM (inactive) | 17.1 µM (inactive) | 18 µM (inactive) | 32.7 µM (inactive) | 32.7 µM (inactive) | 18.1 µM (inactive) | 32.6 µM (inactive) | 14.2 µM (inactive) | 33.5 µM (inactive) | 19.9 µM (inactive) | 13.2 µM (inactive) | 6.61 µM (inactive) | 20.9 µM (inactive) | 33 µM (inactive) | 38.9 µM (inactive) | 18.7 µM | 16.9 µM (inactive) | 13.6 µM (inactive) | 
O=C1c2cc3ccccc3cc2C2(c3ccc(Cl)cc3)NCCN12 (stereo not drawn) | 38.3 µM (inactive) | 29.9 µM (inactive) | 33.3 µM (inactive) | 33 µM (inactive) | 31.8 µM (inactive) | 32.8 µM (inactive) | 29.4 µM (inactive) | 21.5 µM (inactive) | 34.5 µM (inactive) | 29.3 µM (inactive) | 33.2 µM (inactive) | 24.6 µM (inactive) | 21.1 µM (inactive) | 54 µM (inactive) | 26.2 µM (inactive) | 38.1 µM (inactive) | 27 µM | 20 µM (inactive) | 34.8 µM (inactive) | 
O=C(NC12CC3CC(CC(C3)C1)C2)n1cnc2cncnc21 | 54.6 µM (inactive) | 91.2 µM (inactive) | 30.1 µM (inactive) | 34.8 µM (inactive) | 56.5 µM (inactive) | 28.6 µM (inactive) | 22.5 µM (inactive) | 34.3 µM (inactive) |  | 17.8 µM (inactive) | 33.3 µM (inactive) | 18.2 µM (inactive) | 35.6 µM (inactive) | 46.8 µM (inactive) | 27.5 µM (inactive) | 50.1 µM (inactive) | 27.7 µM | 16.1 µM (inactive) | 30.2 µM (inactive) | 16.1 µM (inactive)
O=c1oc2c(ccc3ccccc32)cc1C1=CSC2=NCCN12 | 73.1 µM (inactive) | 23.3 µM (inactive) | 54.7 µM (inactive) | 35.2 µM (inactive) | 56.1 µM (inactive) | 75.2 µM (inactive) | 42.6 µM (inactive) |  |  | 67.3 µM (inactive) | 34.2 µM (inactive) | > 100 µM (inactive) | 3.82 µM (inactive) | 26.2 µM (inactive) | 21.8 µM (inactive) | 38.7 µM (inactive) | 38.4 µM | 46.3 µM (inactive) | 49.3 µM (inactive) | 30.3 µM (inactive)
CCOC(=O)C(C)c1nc2ccc(C(F)(F)F)cc2[nH]c1=O (stereo not drawn) | 68.4 µM (inactive) | 36.2 µM (inactive) | 94.6 µM (inactive) | > 100 µM (inactive) | 58.7 µM (inactive) | 37.4 µM (inactive) | 28.9 µM (inactive) | > 100 µM (inactive) | 73.6 µM (inactive) | > 100 µM (inactive) | 50.2 µM (inactive) | > 100 µM (inactive) | 65.2 µM (inactive) | 42 µM (inactive) | 60.8 µM (inactive) | > 100 µM (inactive) | 95.3 µM | 52.7 µM (inactive) | 60.7 µM (inactive) | 
